The nature of series [1]: Clearance in AP Wistar rat at 2.1 to 4.0 mg/kg, iv and 8.1 to 8.9 mg/kg, po. It counts as ADME, organism-based. As to conditions: in vivo.
Series [2] in a line: Bioavailability in AP Wistar rat at 2.1 to 4.0 mg/kg, iv and 8.1 to 8.9 mg/kg, po. In kind it is ADME, organism-based. As to conditions: in vivo, at 8.1 to 8.9 mg/kg.
The nature of series [3]: Half life in AP Wistar rat at 2.1 to 4.0 mg/kg, iv and 8.1 to 8.9 mg/kg, po. In kind it is ADME, organism-based. Particulars: in vivo.
A short description of series [4]: Volume of distribution at steady state in AP Wistar rat at 2.1 to 4.0 mg/kg, iv and 8.1 to 8.9 mg/kg, po. As to conditions: in vivo, read-out: Vdss. It counts as ADME, organism-based.
Series [5] can be described thus: in vitro. As to conditions: human, Caco-2.
The nature of series [6]: in vitro. As to conditions: human, Caco-2. The source holds these as a separate data set.

For `NC(=O)CN1C(=O)C(NC(=O)c2cc3cc(Cl)sc3[nH]2)Cc2ccccc21` (stereo not given), the clearance in series [1] was determined as 1.2 mL/min/kg. In series [2], this molecule came in with a bioavailability of 35%. Also, in series [3], the half-life is 16 h. Besides, the Vd in series [4] was found to be 1.4 L/kg.
Molecule `O=C(O)CN1C(=O)C(NC(=O)c2cc3sc(Cl)c(Cl)c3[nH]2)Cc2ccccc21` (stereo not given) yielded a Papp B→A in the series “in vitro [5]” of 11 ×10⁻⁶ cm/s. In addition, in “in vitro [6]”, the Papp A→B stood at 0.3 ×10⁻⁶ cm/s.
As to `O=C(CN1C(=O)C(NC(=O)c2cc3cc(Cl)sc3[nH]2)Cc2ccccc21)NCCO` (stereo not given), in series [1], the clearance came out at 5.1 mL/min/kg. In series [2], this molecule came in with a bioavailability of 12%. Also, the half-life in series [3] is 5.4 h. Besides, in series [4], the Vd was determined as 1.4 L/kg.
`O=C(NC1Cc2ccccc2N(CC(CO)CO)C1=O)c1cc2cc(Cl)sc2[nH]1` (racemic) came in with a clearance in series [1] of 2.5 mL/min/kg. In series [2], this molecule had a bioavailability of 41%. The half-life in series [3] was 13 h. Moreover, the Vd in series [4] came to 2.2 L/kg.
Regarding `O=C(NC1Cc2ccccc2N(C[C@@H](O)CO)C1=O)c1cc2cc(Cl)sc2[nH]1` (mixture of isomers), the clearance in series [1] was 2.4 mL/min/kg. The bioavailability in series [2] is above 100%. In addition, in series [3], the half-life was 11 h. Also, the Papp B→A in the series “in vitro [5]” came out at 29 ×10⁻⁶ cm/s. The same molecule yielded a Papp A→B in the series “in vitro [6]” of 29 ×10⁻⁶ cm/s. In addition, the Vd in series [4] was found to be 1.9 L/kg.

The bioavailability is the share of a dose that reaches the circulation, judged against a reference dose that is usually intravenous. Higher therefore signals good availability. As usually defined, the half-life is the time in which the quantity being followed falls by half. Read a high half-life as slow decline. For orientation: Papp B→A means how fast a substance crosses the layer from the basolateral side. Usually Papp A→B stands for the apparent permeability from the apical to the basolateral side of a cell layer. Read a low Papp A→B as slow passage.

Source of the values: ChEMBL document CHEMBL1146283, “Development of potent, orally active 1-substituted-3,4-dihydro-2-quinolone glycogen phosphorylase inhibitors” (Bioorg Med Chem Lett, 2007).
